According to ChEMBL document CHEMBL1159176, “Regioselective synthesis of 3-aryl substituted pyrrolidines via palladium catalyzed arylation: pharmacological evaluation for central dopaminergic and serotonergic activity” (Bioorg Med Chem Lett, 1997):

Test system: Rattus norvegicus
Test: Accumulation of Dihydroxyphenylalanine in cortical brain region in rat after injecting drug compound 65 min and NSD 1015 at a dose of 100 mg/kg administered subcutaneously, 30 min before death, tested in vivo
Assay type: functional
Details: route subcutaneous

Question: Which Control does the source give for `CCCN1CCC(c2cccc(OS(=O)(=O)C(F)(F)F)c2)C1` (configuration not stated) here?
Answer: 114%

Question: `CCCN1CCC(c2cccnc2)C1` (configuration not stated) was tested. Which Control did it give?
Answer: 132%

Question: For `CCCN1CCC(C2CCCCC2)C1` (configuration not stated), which Control is on record?
Answer: 119%

Question: Which Control does the source give for `CCCN1CCC(c2cccc(S(C)(=O)=O)c2)C1` (configuration not stated) here?
Answer: 143%

Question: How did the Control turn out when `CCCN1CCC(c2cccc(C(F)(F)F)c2)C1` (configuration not stated) was run?
Answer: 131%

Question: Which Control does the source give for `CN1CCC(C2=CN=CCC2)C1` (configuration not stated) here?
Answer: 126%

Question: For `CCCN1CCC(c2ccccc2)C1` (configuration not stated), which Control is on record?
Answer: 130%

Test system: Rattus norvegicus
Test: Accumulation of Dihydroxyphenylalanine in striatal region in rat after injecting drug compound 65 min and NSD 1015 at a dose of 100 mg/kg administered subcutaneously, 30 min before death, tested in vivo
Assay type: functional
Details: route subcutaneous

Question: How did the Control turn out when `CCCN1CCC(c2cccc(OS(=O)(=O)C(F)(F)F)c2)C1` (configuration not stated) was run?
Answer: 290%

Question: How did the Control turn out when `CCCN1CCC(c2cccnc2)C1` (configuration not stated) was run?
Answer: 108%

Question: How did the Control turn out when `CCCN1CCC(C2CCCCC2)C1` (configuration not stated) was run?
Answer: 95%

Question: `CCCN1CCC(c2cccc(S(C)(=O)=O)c2)C1` (configuration not stated) was tested. Which Control did it give?
Answer: 256%

Question: `CCCN1CCC(c2cccc(C(F)(F)F)c2)C1` (configuration not stated) was tested. Which Control did it give?
Answer: 297%

Question: Which Control does the source give for `CN1CCC(C2=CN=CCC2)C1` (configuration not stated) here?
Answer: 112%

Question: With `CCCN1CCC(c2ccccc2)C1` (configuration not stated) as the compound, how does the Control read?
Answer: 66%

Test system: Rattus norvegicus
Test: Accumulation of Dihydroxyphenylalanine in limbic region in rat after injecting drug compound 65 min and NSD 1015 at a dose of 100 mg/kg administered subcutaneously, 30 min before death, tested in vivo
Assay type: functional, Limbic system
Details: route subcutaneous

Question: How did the Control turn out when `CCCN1CCC(c2cccc(OS(=O)(=O)C(F)(F)F)c2)C1` (configuration not stated) was run?
Answer: 211%

Question: Which Control does the source give for `CCCN1CCC(c2cccnc2)C1` (configuration not stated) here?
Answer: 111%

Question: How did the Control turn out when `CCCN1CCC(C2CCCCC2)C1` (configuration not stated) was run?
Answer: 116%

Question: `CCCN1CCC(c2cccc(S(C)(=O)=O)c2)C1` (configuration not stated) was tested. Which Control did it give?
Answer: 207%

Question: For `CCCN1CCC(c2cccc(C(F)(F)F)c2)C1` (configuration not stated), which Control is on record?
Answer: 205%

Question: For `CN1CCC(C2=CN=CCC2)C1` (configuration not stated), which Control is on record?
Answer: 112%

Question: Which Control does the source give for `CCCN1CCC(c2ccccc2)C1` (configuration not stated) here?
Answer: 96%

Test system: Rattus norvegicus
Test: Accumulation of 5-Hydroxytryptophan in cortical brain region in rat after injecting drug compound 65 min and NSD 1015 at a dose of 100 mg/kg administered subcutaneously, 30 min before death, tested in vivo
Assay type: functional
Details: route subcutaneous

Question: For `CCCN1CCC(c2cccc(OS(=O)(=O)C(F)(F)F)c2)C1` (configuration not stated), which Control is on record?
Answer: 98%

Question: `CCCN1CCC(c2cccnc2)C1` (configuration not stated) was tested. Which Control did it give?
Answer: 94%

Question: For `CCCN1CCC(C2CCCCC2)C1` (configuration not stated), which Control is on record?
Answer: 88%

Question: With `CCCN1CCC(c2cccc(S(C)(=O)=O)c2)C1` (configuration not stated) as the compound, how does the Control read?
Answer: 92%

Question: How did the Control turn out when `CCCN1CCC(c2cccc(C(F)(F)F)c2)C1` (configuration not stated) was run?
Answer: 87%

Question: Which Control does the source give for `CN1CCC(C2=CN=CCC2)C1` (configuration not stated) here?
Answer: 79%

Question: Which Control does the source give for `CCCN1CCC(c2ccccc2)C1` (configuration not stated) here?
Answer: 83%

Molecular target: T1, D(3) dopamine receptor (Rattus norvegicus, UniProt P19020)
T1 sequence (P19020 whole entry): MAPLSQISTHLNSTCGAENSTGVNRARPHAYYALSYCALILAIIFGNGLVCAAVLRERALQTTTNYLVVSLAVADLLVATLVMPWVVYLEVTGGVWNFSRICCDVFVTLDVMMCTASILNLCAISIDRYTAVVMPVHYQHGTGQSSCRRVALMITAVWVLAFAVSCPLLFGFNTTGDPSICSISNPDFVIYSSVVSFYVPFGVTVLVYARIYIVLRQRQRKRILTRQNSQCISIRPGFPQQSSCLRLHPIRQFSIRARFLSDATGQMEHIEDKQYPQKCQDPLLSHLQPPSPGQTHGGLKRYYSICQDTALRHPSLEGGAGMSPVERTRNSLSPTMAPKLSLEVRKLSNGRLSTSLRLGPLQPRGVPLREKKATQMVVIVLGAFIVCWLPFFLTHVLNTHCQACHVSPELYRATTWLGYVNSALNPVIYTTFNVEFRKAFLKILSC
Test: Inhibitory concentration against [3H]spiperone binding to Dopamine receptor D3 expressed in CHO-K1 cells
Assay type: cell-based
Details: not given

Question: For `CCCN1CCC(c2cccnc2)C1` (configuration not stated), which IC50 is on record?
Answer: > 1000 nM

Question: With `CCCN1CCC(C2CCCCC2)C1` (configuration not stated) as the compound, how does the IC50 read?
Answer: > 1000 nM

Question: `CCCN1CCC(c2cccc(S(C)(=O)=O)c2)C1` (configuration not stated) was tested. Which IC50 did it give?
Answer: > 1000 nM

Question: `CN1CCC(C2=CN=CCC2)C1` (configuration not stated) was tested. Which IC50 did it give?
Answer: > 1000 nM

Molecular target: T1, D(3) dopamine receptor
Test: Binding affinity against [3H]spiperone binding to Dopamine receptor D3 expressed in CHO-K1 cells
Assay type: cell-based
Details: not given

Question: Which Ki does the source give for `CCCN1CCC(c2cccc(OS(=O)(=O)C(F)(F)F)c2)C1` (configuration not stated) here?
Answer: 62 nM

Question: For `CCCN1CCC(c2cccc(C(F)(F)F)c2)C1` (configuration not stated), which Ki is on record?
Answer: 35 nM

Question: For `CCCN1CCC(c2ccccc2)C1` (configuration not stated), which Ki is on record?
Answer: > 2500 nM

Molecular target: T2, Serotonin 2 (5-HT2) receptor (Rattus norvegicus, UniProt P30994+P08909+P14842)
Test: Binding affinity against [3H]ketanserin binding to 5-hydroxytryptamine 2 receptor expressed in CHO-K1 cells
Assay type: cell-based
Details: not given

Question: Which Ki does the source give for `CCCN1CCC(c2cccc(C(F)(F)F)c2)C1` (configuration not stated) here?
Answer: 569 nM

Test system: Rattus norvegicus
Test: Locomotor activity, measured for 30 min after injection of drug, administered subcutaneously at 100 umol/kg
Assay type: functional
Details: not given

Question: Which Control does the source give for `CCCN1CCC(c2cccc(OS(=O)(=O)C(F)(F)F)c2)C1` (configuration not stated) here?
Answer: 93%

Question: For `CCCN1CCC(c2cccnc2)C1` (configuration not stated), which Control is on record?
Answer: 15%

Question: `CCCN1CCC(C2CCCCC2)C1` (configuration not stated) was tested. Which Control did it give?
Answer: 87%

Question: With `CCCN1CCC(c2cccc(S(C)(=O)=O)c2)C1` (configuration not stated) as the compound, how does the Control read?
Answer: 126%

Question: How did the Control turn out when `CCCN1CCC(c2cccc(C(F)(F)F)c2)C1` (configuration not stated) was run?
Answer: 89%

Question: For `CN1CCC(C2=CN=CCC2)C1` (configuration not stated), which Control is on record?
Answer: 47%

Question: How did the Control turn out when `CCCN1CCC(c2ccccc2)C1` (configuration not stated) was run?
Answer: 115%

Molecular target: T3, 5-hydroxytryptamine receptor 1A (Rattus norvegicus, UniProt P19327)
T3 sequence (P19327 whole entry): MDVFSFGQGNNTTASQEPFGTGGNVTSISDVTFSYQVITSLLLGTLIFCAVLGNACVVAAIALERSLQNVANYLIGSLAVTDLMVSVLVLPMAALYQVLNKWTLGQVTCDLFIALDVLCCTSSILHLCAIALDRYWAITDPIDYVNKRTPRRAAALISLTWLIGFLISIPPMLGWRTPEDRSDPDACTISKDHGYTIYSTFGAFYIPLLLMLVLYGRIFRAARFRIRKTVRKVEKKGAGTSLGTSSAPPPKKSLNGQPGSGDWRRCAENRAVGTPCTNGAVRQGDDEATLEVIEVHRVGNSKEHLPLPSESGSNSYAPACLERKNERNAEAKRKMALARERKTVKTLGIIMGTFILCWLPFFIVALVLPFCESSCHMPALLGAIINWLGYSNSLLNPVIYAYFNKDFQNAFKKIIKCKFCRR
Test: Inhibitory concentration against [3H]8-OH-DPAT binding to 5-hydroxytryptamine 1A receptor expressed in CHO-K1 cells
Assay type: cell-based
Details: not given

Question: Which IC50 does the source give for `CCCN1CCC(c2cccnc2)C1` (configuration not stated) here?
Answer: > 1000 nM

Question: How did the IC50 turn out when `CCCN1CCC(C2CCCCC2)C1` (configuration not stated) was run?
Answer: > 1000 nM

Question: With `CN1CCC(C2=CN=CCC2)C1` (configuration not stated) as the compound, how does the IC50 read?
Answer: > 1000 nM

Molecular target: T2, Serotonin 2 (5-HT2) receptor
Test: Inhibitory concentration against [3H]ketanserin binding to 5-hydroxytryptamine 2 receptor expressed in CHO-K1 cells
Assay type: cell-based
Details: not given

Question: Which IC50 does the source give for `CCCN1CCC(c2cccc(OS(=O)(=O)C(F)(F)F)c2)C1` (configuration not stated) here?
Answer: > 1000 nM

Question: Which IC50 does the source give for `CCCN1CCC(c2cccnc2)C1` (configuration not stated) here?
Answer: > 1000 nM

Question: With `CCCN1CCC(C2CCCCC2)C1` (configuration not stated) as the compound, how does the IC50 read?
Answer: > 1000 nM

Question: How did the IC50 turn out when `CCCN1CCC(c2cccc(S(C)(=O)=O)c2)C1` (configuration not stated) was run?
Answer: > 1000 nM

Question: How did the IC50 turn out when `CN1CCC(C2=CN=CCC2)C1` (configuration not stated) was run?
Answer: > 1000 nM

Question: Which IC50 does the source give for `CCCN1CCC(c2ccccc2)C1` (configuration not stated) here?
Answer: > 1000 nM

Molecular target: T3, 5-hydroxytryptamine receptor 1A
Test: Binding affinity against [3H]8-OH-DPAT binding to 5-hydroxytryptamine 1A receptor expressed in CHO-K1 cells
Assay type: cell-based
Details: not given

Question: With `CCCN1CCC(c2cccc(OS(=O)(=O)C(F)(F)F)c2)C1` (configuration not stated) as the compound, how does the Ki read?
Answer: 652 nM

Question: How did the Ki turn out when `CCCN1CCC(c2cccc(S(C)(=O)=O)c2)C1` (configuration not stated) was run?
Answer: 807 nM

Question: Which Ki does the source give for `CCCN1CCC(c2cccc(C(F)(F)F)c2)C1` (configuration not stated) here?
Answer: 351 nM

Question: Which Ki does the source give for `CCCN1CCC(c2ccccc2)C1` (configuration not stated) here?
Answer: 453 nM

Test system: Rattus norvegicus
Test: Accumulation of 5-Hydroxytryptophan in limbic region in rat after injecting drug compound 65 min and NSD 1015 at a dose of 100 mg/kg administered subcutaneously, 30 min before death, tested in vivo
Assay type: functional, Limbic system
Details: route subcutaneous

Question: Which Control does the source give for `CCCN1CCC(c2cccc(OS(=O)(=O)C(F)(F)F)c2)C1` (configuration not stated) here?
Answer: 85%

Question: How did the Control turn out when `CCCN1CCC(c2cccnc2)C1` (configuration not stated) was run?
Answer: 90%

Question: For `CCCN1CCC(C2CCCCC2)C1` (configuration not stated), which Control is on record?
Answer: 102%

Question: For `CCCN1CCC(c2cccc(S(C)(=O)=O)c2)C1` (configuration not stated), which Control is on record?
Answer: 97%

Question: For `CCCN1CCC(c2cccc(C(F)(F)F)c2)C1` (configuration not stated), which Control is on record?
Answer: 97%

Question: With `CN1CCC(C2=CN=CCC2)C1` (configuration not stated) as the compound, how does the Control read?
Answer: 72%

Question: How did the Control turn out when `CCCN1CCC(c2ccccc2)C1` (configuration not stated) was run?
Answer: 92%

Molecular target: T4, D(2) dopamine receptor (Rattus norvegicus, UniProt P61169)
T4 sequence (P61169 whole entry): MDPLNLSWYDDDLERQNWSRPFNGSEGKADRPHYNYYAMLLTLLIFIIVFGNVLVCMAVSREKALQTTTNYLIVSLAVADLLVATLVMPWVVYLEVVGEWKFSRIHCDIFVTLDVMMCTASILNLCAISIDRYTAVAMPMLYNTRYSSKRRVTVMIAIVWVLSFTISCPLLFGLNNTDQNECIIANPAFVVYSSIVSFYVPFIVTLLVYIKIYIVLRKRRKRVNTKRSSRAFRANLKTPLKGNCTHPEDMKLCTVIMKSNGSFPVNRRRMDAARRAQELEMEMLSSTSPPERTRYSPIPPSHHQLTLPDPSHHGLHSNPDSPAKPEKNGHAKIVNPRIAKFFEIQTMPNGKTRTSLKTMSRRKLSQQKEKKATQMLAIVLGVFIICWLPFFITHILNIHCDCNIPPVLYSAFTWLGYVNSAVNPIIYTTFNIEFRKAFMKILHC
Test: Binding affinity against [3H]U-86170 binding to Dopamine receptor D2 expressed in CHO-K1 cells
Assay type: cell-based
Details: not given

Question: For `CCCN1CCC(c2cccc(OS(=O)(=O)C(F)(F)F)c2)C1` (configuration not stated), which Ki is on record?
Answer: 162 nM

Question: For `CCCN1CCC(c2cccc(C(F)(F)F)c2)C1` (configuration not stated), which Ki is on record?
Answer: 151 nM

Question: How did the Ki turn out when `CCCN1CCC(c2ccccc2)C1` (configuration not stated) was run?
Answer: 625 nM

Test system: Rattus norvegicus
Test: Accumulation of 5-Hydroxytryptophan in striatal region in rat after injecting drug compound 65 min and NSD 1015 at a dose of 100 mg/kg administered subcutaneously, 30 min before death, tested in vivo
Assay type: functional
Details: route subcutaneous

Question: Which Control does the source give for `CCCN1CCC(c2cccc(OS(=O)(=O)C(F)(F)F)c2)C1` (configuration not stated) here?
Answer: 86%

Question: How did the Control turn out when `CCCN1CCC(c2cccnc2)C1` (configuration not stated) was run?
Answer: 104%

Question: Which Control does the source give for `CCCN1CCC(C2CCCCC2)C1` (configuration not stated) here?
Answer: 103%

Question: `CCCN1CCC(c2cccc(S(C)(=O)=O)c2)C1` (configuration not stated) was tested. Which Control did it give?
Answer: 78%

Question: Which Control does the source give for `CCCN1CCC(c2cccc(C(F)(F)F)c2)C1` (configuration not stated) here?
Answer: 78%

Question: For `CN1CCC(C2=CN=CCC2)C1` (configuration not stated), which Control is on record?
Answer: 112%

Question: For `CCCN1CCC(c2ccccc2)C1` (configuration not stated), which Control is on record?
Answer: 81%

Molecular target: T4, D(2) dopamine receptor
Test: Inhibitory concentration against [3H]U-86170 binding to Dopamine receptor D2 expressed in CHO-K1 cells
Assay type: cell-based
Details: not given

Question: For `CCCN1CCC(c2cccnc2)C1` (configuration not stated), which IC50 is on record?
Answer: > 1000 nM

Question: `CCCN1CCC(C2CCCCC2)C1` (configuration not stated) was tested. Which IC50 did it give?
Answer: > 1000 nM

Question: `CCCN1CCC(c2cccc(S(C)(=O)=O)c2)C1` (configuration not stated) was tested. Which IC50 did it give?
Answer: > 1000 nM

Question: With `CN1CCC(C2=CN=CCC2)C1` (configuration not stated) as the compound, how does the IC50 read?
Answer: > 1000 nM
